Test results published in patent US10870647B2, “Imidazopyridine derivative, method for preparing same, and pharmaceutical composition containing same as active ingredient for preventing or treating cancer” (DAEGU-GYEONGBUK MEDICAL INNOVATION FOUNDATION, priority 2016, dated 2020).
Where two headings read alike, the source gives them in different places.

Assays:
Assay in all cases: Kinase selectivity, scanMAX Kinase assay panel (DiscoverX), % control at 1 uM
Format in all cases: binding
[1] = biological target: T1, scanMAX Kinase assay panel (Homo sapiens, UniProt O75676); details: 1 uM, read-out: Percent Control (%)
T1 construct: purchased DiscoverX
T1 sequence (O75676 whole entry): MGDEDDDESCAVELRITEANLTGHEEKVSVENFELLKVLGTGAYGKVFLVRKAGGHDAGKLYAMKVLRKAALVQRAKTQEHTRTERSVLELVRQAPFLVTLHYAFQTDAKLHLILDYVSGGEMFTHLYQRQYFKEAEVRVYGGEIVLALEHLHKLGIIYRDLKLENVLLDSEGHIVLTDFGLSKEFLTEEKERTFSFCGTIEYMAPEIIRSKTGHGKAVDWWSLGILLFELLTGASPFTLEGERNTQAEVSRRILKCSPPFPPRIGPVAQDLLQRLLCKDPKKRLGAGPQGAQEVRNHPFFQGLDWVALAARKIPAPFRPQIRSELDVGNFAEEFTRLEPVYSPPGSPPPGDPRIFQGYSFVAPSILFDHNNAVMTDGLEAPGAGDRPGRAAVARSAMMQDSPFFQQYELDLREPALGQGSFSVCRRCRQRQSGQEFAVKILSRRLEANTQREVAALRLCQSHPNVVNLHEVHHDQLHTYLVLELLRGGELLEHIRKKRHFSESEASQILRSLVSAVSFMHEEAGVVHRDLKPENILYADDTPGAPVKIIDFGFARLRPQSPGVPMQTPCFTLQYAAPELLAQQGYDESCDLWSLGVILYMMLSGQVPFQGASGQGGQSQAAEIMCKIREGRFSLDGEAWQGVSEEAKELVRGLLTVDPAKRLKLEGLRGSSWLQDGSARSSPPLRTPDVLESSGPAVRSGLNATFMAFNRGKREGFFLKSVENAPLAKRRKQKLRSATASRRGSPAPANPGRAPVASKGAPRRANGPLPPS
Outline: (§1)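 Binding across the scanMAX kinase panel was tested at 1 uM compound. % control = (compound − positive control)/(negative control − positive control) × 100; below 35 counted as active.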

[2] = biological target: T2, scanMAX Kinase assay panel (Homo sapiens, UniProt O43353); details: RIPK2; 1 uM; read-out: Percent Control (%)
T2 construct: purchased DiscoverX
T2 sequence (O43353 whole entry): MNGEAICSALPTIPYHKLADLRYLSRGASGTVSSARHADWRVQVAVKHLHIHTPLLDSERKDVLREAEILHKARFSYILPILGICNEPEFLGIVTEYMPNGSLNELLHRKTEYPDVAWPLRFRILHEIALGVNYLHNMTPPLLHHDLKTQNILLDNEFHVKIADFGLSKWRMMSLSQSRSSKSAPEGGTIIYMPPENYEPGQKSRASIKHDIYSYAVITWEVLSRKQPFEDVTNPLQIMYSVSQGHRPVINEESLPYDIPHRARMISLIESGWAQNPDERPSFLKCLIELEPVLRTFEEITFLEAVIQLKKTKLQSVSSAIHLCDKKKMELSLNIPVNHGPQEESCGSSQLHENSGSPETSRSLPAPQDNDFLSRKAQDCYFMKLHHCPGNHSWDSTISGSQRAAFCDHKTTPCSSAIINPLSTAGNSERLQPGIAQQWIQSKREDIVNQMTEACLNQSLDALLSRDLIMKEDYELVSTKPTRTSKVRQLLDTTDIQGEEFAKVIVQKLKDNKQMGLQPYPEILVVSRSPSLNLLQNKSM
Outline: as §1

[3] = biological target: T3, scanMAX Kinase assay panel (Homo sapiens, UniProt Q13464); details: ROCK1; 1 uM; read-out: Percent Control (%)
T3 construct: purchased DiscoverX
T3 sequence (Q13464 whole entry): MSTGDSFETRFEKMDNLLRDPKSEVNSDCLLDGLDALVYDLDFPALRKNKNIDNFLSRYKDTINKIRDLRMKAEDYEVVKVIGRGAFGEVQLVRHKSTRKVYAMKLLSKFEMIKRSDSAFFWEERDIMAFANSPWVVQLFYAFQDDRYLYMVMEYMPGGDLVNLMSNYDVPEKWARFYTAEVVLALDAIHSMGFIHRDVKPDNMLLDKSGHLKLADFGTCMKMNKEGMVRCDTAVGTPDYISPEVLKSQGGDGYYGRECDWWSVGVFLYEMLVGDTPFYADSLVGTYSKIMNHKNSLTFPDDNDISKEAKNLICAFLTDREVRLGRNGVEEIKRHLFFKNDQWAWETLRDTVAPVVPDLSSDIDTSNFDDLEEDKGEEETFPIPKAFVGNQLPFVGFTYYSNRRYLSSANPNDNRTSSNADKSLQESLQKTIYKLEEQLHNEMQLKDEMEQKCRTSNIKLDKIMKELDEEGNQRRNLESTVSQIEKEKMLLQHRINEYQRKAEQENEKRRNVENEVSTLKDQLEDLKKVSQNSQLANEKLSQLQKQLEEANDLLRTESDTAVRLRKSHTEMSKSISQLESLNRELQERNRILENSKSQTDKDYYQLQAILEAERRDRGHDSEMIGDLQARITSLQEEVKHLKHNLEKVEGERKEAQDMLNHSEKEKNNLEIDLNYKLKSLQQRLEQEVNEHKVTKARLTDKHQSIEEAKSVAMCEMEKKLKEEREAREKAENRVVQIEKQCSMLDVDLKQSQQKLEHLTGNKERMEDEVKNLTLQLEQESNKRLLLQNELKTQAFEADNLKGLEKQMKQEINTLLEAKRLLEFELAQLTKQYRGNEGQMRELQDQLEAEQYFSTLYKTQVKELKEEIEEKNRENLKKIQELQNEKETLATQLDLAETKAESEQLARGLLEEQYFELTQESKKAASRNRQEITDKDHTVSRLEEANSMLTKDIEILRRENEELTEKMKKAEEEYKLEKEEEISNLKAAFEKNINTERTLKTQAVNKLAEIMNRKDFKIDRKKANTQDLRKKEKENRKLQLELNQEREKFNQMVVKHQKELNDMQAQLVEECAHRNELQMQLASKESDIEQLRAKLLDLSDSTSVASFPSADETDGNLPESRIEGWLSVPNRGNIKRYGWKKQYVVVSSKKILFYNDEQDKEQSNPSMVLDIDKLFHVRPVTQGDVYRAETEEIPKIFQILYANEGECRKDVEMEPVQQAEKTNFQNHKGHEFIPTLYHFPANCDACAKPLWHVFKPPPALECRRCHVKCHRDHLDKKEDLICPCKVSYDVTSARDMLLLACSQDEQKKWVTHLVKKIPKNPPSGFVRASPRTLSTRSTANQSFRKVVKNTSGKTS
Outline: as §1

[4] = biological target: T4, scanMAX Kinase assay panel (Homo sapiens, UniProt Q2M2I8); details: AAK1; 1 uM; read-out: Percent Control (%)
T4 construct: purchased DiscoverX
T4 sequence (Q2M2I8 whole entry): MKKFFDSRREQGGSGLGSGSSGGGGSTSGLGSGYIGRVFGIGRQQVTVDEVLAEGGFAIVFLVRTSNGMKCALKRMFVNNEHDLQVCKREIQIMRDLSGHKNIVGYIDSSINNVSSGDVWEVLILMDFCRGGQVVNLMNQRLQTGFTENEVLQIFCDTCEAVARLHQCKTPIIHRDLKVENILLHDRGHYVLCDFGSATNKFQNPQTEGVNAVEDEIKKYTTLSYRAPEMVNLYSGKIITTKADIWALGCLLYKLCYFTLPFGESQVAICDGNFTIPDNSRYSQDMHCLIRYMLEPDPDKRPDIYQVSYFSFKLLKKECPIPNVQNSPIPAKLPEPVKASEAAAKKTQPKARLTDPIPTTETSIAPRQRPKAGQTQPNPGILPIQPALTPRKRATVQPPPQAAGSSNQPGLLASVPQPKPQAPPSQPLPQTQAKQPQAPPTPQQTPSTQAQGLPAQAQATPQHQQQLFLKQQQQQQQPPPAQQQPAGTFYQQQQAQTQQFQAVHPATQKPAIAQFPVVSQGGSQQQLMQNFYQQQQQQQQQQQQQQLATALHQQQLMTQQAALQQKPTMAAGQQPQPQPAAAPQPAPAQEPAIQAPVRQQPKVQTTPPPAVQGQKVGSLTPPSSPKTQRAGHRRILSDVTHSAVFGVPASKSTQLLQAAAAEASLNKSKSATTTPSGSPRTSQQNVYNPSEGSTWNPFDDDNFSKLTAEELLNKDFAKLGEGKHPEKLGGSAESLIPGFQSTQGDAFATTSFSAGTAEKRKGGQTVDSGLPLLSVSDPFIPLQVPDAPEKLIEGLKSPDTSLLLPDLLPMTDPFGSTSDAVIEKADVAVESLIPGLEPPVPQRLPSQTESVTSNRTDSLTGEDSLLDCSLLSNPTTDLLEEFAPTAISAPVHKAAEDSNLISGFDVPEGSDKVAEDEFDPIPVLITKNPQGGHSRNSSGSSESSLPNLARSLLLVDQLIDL
Outline: as §1

[5] = biological target: T5, scanMAX Kinase assay panel (Homo sapiens, UniProt P07948); details: LYN; 1 uM; read-out: Percent Control (%)
T5 construct: purchased DiscoverX
T5 sequence (P07948 whole entry): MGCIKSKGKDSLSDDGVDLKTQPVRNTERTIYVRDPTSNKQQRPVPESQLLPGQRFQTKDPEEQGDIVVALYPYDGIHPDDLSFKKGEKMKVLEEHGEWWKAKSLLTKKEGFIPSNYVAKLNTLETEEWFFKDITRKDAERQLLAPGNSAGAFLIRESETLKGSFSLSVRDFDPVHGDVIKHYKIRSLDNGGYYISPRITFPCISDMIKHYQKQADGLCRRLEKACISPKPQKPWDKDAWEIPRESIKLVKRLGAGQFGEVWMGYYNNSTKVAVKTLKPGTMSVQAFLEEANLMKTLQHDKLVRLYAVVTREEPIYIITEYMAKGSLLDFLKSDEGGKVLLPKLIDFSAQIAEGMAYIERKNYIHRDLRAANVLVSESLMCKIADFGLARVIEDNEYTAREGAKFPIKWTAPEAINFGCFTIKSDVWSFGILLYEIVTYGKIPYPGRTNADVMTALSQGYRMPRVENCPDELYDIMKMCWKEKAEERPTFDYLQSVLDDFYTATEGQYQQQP
Outline: as §1

[6] = biological target: T6, scanMAX Kinase assay panel (Homo sapiens, UniProt P43405); details: SYK; 1 uM; read-out: Percent Control (%)
T6 construct: purchased DiscoverX
Outline: as §1

[7] = biological target: T7, scanMAX Kinase assay panel (Homo sapiens, UniProt Q8IWQ3); details: BRSK2; 1 uM; read-out: Percent Control (%)
T7 construct: purchased DiscoverX
T7 sequence (Q8IWQ3 1-736): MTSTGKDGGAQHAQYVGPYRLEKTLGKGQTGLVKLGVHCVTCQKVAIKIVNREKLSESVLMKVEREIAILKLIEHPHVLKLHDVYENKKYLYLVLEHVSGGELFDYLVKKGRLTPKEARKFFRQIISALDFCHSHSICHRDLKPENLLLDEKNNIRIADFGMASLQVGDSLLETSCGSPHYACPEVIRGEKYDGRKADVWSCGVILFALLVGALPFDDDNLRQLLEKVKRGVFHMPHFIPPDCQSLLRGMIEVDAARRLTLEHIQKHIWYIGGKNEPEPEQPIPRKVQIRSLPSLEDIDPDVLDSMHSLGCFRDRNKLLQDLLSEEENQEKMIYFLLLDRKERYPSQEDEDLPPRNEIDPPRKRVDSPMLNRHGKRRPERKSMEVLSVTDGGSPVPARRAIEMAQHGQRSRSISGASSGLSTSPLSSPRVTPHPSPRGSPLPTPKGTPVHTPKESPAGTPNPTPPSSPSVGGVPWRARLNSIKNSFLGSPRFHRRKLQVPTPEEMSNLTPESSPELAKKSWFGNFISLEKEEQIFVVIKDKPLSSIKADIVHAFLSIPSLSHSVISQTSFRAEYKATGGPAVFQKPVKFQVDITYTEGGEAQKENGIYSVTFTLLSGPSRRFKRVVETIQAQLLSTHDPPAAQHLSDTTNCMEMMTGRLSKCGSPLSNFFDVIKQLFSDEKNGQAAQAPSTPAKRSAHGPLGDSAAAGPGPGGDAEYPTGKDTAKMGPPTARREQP
Outline: as §1

[8] = biological target: T8, scanMAX Kinase assay panel (Homo sapiens, UniProt Q13043); details: MST1; 1 uM; read-out: Percent Control (%)
T8 construct: purchased DiscoverX
T8 sequence (Q13043 1-487): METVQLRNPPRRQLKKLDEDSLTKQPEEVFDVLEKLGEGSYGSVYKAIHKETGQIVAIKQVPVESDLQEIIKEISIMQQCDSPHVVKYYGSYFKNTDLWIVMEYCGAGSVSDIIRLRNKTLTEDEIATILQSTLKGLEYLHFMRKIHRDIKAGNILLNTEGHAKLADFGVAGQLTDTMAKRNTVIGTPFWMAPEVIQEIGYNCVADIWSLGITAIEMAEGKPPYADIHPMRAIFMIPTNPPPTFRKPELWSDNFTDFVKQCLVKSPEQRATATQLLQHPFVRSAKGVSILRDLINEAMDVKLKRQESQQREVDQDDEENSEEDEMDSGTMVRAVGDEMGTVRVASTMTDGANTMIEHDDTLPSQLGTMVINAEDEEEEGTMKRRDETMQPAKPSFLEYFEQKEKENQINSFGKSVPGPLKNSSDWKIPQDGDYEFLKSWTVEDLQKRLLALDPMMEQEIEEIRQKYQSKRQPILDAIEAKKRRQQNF
Outline: as §1

Compound | remaining binding at 1 µM ([1]; RPS6KA4 (Kin.Dom.1-N-terminal)) [%] | remaining binding at 1 µM ([1]; RPS6KA4 (Kin.Dom.2-C-terminal)) [%] | remaining binding at 1 µM [2] [%] | remaining binding at 1 µM [3] [%] | remaining binding at 1 µM [4] [%] | remaining binding at 1 µM [5] [%] | remaining binding at 1 µM [6] [%] | remaining binding at 1 µM [7] [%] | remaining binding at 1 µM [8] [%]
Cc1ccc(NC(=O)C2(C(=O)Nc3ccc(F)cc3)CC2)cc1C#Cc1cnc2c(Nc3cnn(C(C)C)c3)cccn12 [Example 78] | 94 | 78 | 99 | 100 | 100 | 84 | 78 | 100 | 100
Cc1cn(-c2cc(NC(=O)c3ccc(C)c(C#Cc4cnc5c(Nc6cnn(C)c6)cccn45)c3)cc(C(F)(F)F)c2)cn1 [Example 12, 4-methyl-N-(3-(4-methyl-1H-imidazol-1-yl)-5-(trifluoromethyl)phenyl)-3-((8-((1-methyl-1H-pyrazol-4-yl)amino)imidazo[1,2-a]pyridin-3-yl)ethynyl)benzamide] | 85 | 100 | 22 | 100 | 85 | 3 | 12 | 87 | 84
Cc1ccc(C(=O)Nc2ccc(CN3CCN(C)CC3)c(C(F)(F)F)c2)cc1C#Cc1cnc2c(Nc3cnn(C)c3)cccn12 [Example 1, 4-methyl-3-((8-((1-methyl-1H-pyrazol-4-yl)amino)imidazo[1,2-a]pyridin-3-yl)ethynyl)-N-(4-((4-methylpiperazin-1-yl)methyl)-3-(trifluoromethyl)phenyl)benzamide] | 31 | 94 | 7 | 89 | 64 | 0 | 2 | 96 | 27
